Tested on: MCF-7, U87, PANC-1 and A549
Assay: MTT cytotoxicity assay, average over all tested cancer cell lines
Format: cell-based
Conditions: Homo sapiens, 72 h, read-out: average IC50 against all tested cell lines

**Q.** With `CC1=CC(=O)C(C(C)C)=CC1=O` [TQ, Thymoquinone] as the compound, how does the IC50 read?
**A.** The IC50 was roughly 32 µM.

From paper PMC12516812 (RSC Advances, 2025)
